In ChEMBL document CHEMBL2413072, “Synthesis and in vitro anticancer studies of novel C-2 arylidene congeners of lantadenes” (2013):

Columns and labels:
Type in all cases: functional
K562 [1] = assay: Growth inhibition of human K562 cells assessed as cell growth at 10^-6 M by sulforhodamine B assay; conditions: read-out: Activity
IGROV-1 [2] = assay: Growth inhibition of human IGROV1 cells assessed as cell growth at 10^-8 M by sulforhodamine B assay; conditions: read-out: Activity
A549 = assay: Growth inhibition of human A549/ATCC cells by sulforhodamine B assay
COLO 205 = assay: Growth inhibition of human COLO205 cells by sulforhodamine B assay
SF-268 = assay: Growth inhibition of human SF268 cells assessed as cell growth at 10^-8 M by sulforhodamine B assay; conditions: read-out: Activity
LOX IMVI [3] = assay: Growth inhibition of human LOXIMVI cells assessed as cell growth at 10^-7 M by sulforhodamine B assay; conditions: read-out: Activity
DU-145 [4] = assay: Growth inhibition of human DU145 cells by sulforhodamine B assay
TK-10 [5] = assay: Growth inhibition of human TK10 cells assessed as cell growth at 10^-4 M by sulforhodamine B assay; conditions: read-out: Activity
UACC-257 = assay: Growth inhibition of human UACC257 cells assessed as cell growth at 10^-7 M by sulforhodamine B assay; conditions: read-out: Activity
786-0 = assay: Growth inhibition of human 786-0 cells assessed as cell growth at 10^-4 M by sulforhodamine B assay; conditions: read-out: Activity
U-251 = assay: Growth inhibition of human U251 cells assessed as cell growth at 10^-4 M by sulforhodamine B assay; conditions: read-out: Activity
CAKI-1 = assay: Growth inhibition of human CAKI-1 cells assessed as cell growth at 10^-8 M by sulforhodamine B assay; conditions: read-out: Activity
SF-295 = assay: Growth inhibition of human SF295 cells assessed as cell growth at 10^-8 M by sulforhodamine B assay; conditions: read-out: Activity
SK-OV-3 [6] = assay: Growth inhibition of human SKOV3 cells assessed as cell growth at 10^-7 M by sulforhodamine B assay; conditions: read-out: Activity
NCI-H322M [7] = assay: Growth inhibition of human NCI-H322M cells assessed as cell growth at 10^-7 M by sulforhodamine B assay; conditions: read-out: Activity
IGROV-1 [8] = assay: Growth inhibition of human IGROV1 cells assessed as cell growth at 10^-7 M by sulforhodamine B assay; conditions: read-out: Activity
OVCAR-5 = assay: Growth inhibition of human OVCAR5 cells by sulforhodamine B assay
OVCAR-4 = assay: Growth inhibition of human OVCAR4 cells assessed as cell growth at 10^-4 M by sulforhodamine B assay; conditions: read-out: Activity
LOX IMVI [9] = assay: Growth inhibition of human LOXIMVI cells assessed as cell growth at 10^-6 M by sulforhodamine B assay; conditions: read-out: Activity
A498 = assay: Growth inhibition of human A498 cells assessed as cell growth at 10^-7 M by sulforhodamine B assay; conditions: read-out: Activity
[10] = Growth inhibition of human HCC2998 cells assessed as cell growth at 10^-4 M by sulforhodamine B assay; conditions: HCC 2998, read-out: Activity
SW-620 [11] = assay: Growth inhibition of human SW620 cells assessed as cell growth at 10^-7 M by sulforhodamine B assay; conditions: read-out: Activity
K562 [12] = assay: Growth inhibition of human K562 cells assessed as cell growth at 10^-7 M by sulforhodamine B assay; conditions: read-out: Activity
[13] = Growth inhibition of human NCI-ADR-RES cells assessed as cell growth at 10^-4 M by sulforhodamine B assay; conditions: read-out: Activity
SW-620 [14] = assay: Growth inhibition of human SW620 cells assessed as cell growth at 10^-6 M by sulforhodamine B assay; conditions: read-out: Activity
HCT-116 = assay: Growth inhibition of human HCT116 cells assessed as cell growth at 10^-7 M by sulforhodamine B assay; conditions: read-out: Activity
MDA-MB-468 = assay: Growth inhibition of human MDA-MB-468 cells assessed as cell growth at 10^-7 M by sulforhodamine B assay; conditions: read-out: Activity
TK-10 [15] = assay: Growth inhibition of human TK10 cells assessed as cell growth at 10^-7 M by sulforhodamine B assay; conditions: read-out: Activity
RXF 393 = assay: Growth inhibition of human RXF393 cells assessed as cell growth at 10^-7 M by sulforhodamine B assay; conditions: read-out: Activity
BT-549 = assay: Growth inhibition of human BT549 cells assessed as cell growth at 10^-6 M by sulforhodamine B assay; conditions: read-out: Activity
[16] = Growth inhibition of human Hs 578T cells by sulforhodamine B assay
NCI-H322M [17] = assay: Growth inhibition of human NCI-H322M cells assessed as cell growth at 10^-4 M by sulforhodamine B assay; conditions: read-out: Activity
HOP-62 = assay: Growth inhibition of human HOP62 cells assessed as cell growth at 10^-8 M by sulforhodamine B assay; conditions: read-out: Activity
RPMI-8226 = assay: Growth inhibition of human RPMI8226 cells by sulforhodamine B assay
CCRF-CEM = assay: Growth inhibition of human CCRF-CEM cells assessed as cell growth at 10^-7 M by sulforhodamine B assay; conditions: read-out: Activity
HOP-92 = assay: Growth inhibition of human HOP92 cells assessed as cell growth at 10^-4 M by sulforhodamine B assay; conditions: read-out: Activity
DU-145 [18] = assay: Growth inhibition of human DU145 cells assessed as cell growth at 10^-7 M by sulforhodamine B assay; conditions: read-out: Activity
NCI-H522 = assay: Growth inhibition of human NCI-H522 cells assessed as cell growth at 10^-8 M by sulforhodamine B assay; conditions: read-out: Activity
SK-OV-3 [19] = assay: Growth inhibition of human SKOV3 cells by sulforhodamine B assay
TK-10 [20] = assay: Growth inhibition of human TK10 cells by sulforhodamine B assay
[21] = read-out: LC50 (the source's name)
[22] = read-out: pLC50 (the source's name) (converted)

## C/C=C(/C)C(=O)O[C@@H]1CC(C)(C)C[C@H]2C3=CC[C@@H]4[C@@]5(C)CCC(=O)C(C)(C)[C@@H]5CC[C@@]4(C)[C@]3(C)CC[C@@]12C(=O)O [LANTADENE A]
K562 [1]
  growth at 1 µM: 87%
IGROV-1 [2]
  growth at 0.01 µM: 108%
A549; read-out: GI50
  GI50: 2.84 µM
A549; [21]
  CC50: > 100 µM
A549; read-out: TGI
  TGI: > 100 µM
A549; read-out: pGI50 (converted)
  GI50: 2.82 µM
A549; [22]
  CC50: > 100 µM
A549; read-out: pTGI (converted)
  TGI: > 100 µM
COLO 205; read-out: GI50
  GI50: 2.64 µM
COLO 205; read-out: LC50
  LC50: 89.7 µM
COLO 205; read-out: TGI
  TGI: 6.8 µM
COLO 205; read-out: pGI50 (converted)
  GI50: 2.63 µM
COLO 205; read-out: pLC50 (converted)
  LC50: 89.1 µM
COLO 205; read-out: pTGI (converted)
  TGI: 6.76 µM
SF-268
  growth at 0.01 µM: 100%
LOX IMVI [3]
  growth at 0.1 µM: 95%
DU-145 [4]; read-out: GI50
  GI50: 5.92 µM
DU-145 [4]; [21]
  CC50: > 100 µM
DU-145 [4]; read-out: TGI
  TGI: > 100 µM
DU-145 [4]; read-out: pGI50 (converted)
  GI50: 5.89 µM
DU-145 [4]; [22]
  CC50: > 100 µM
DU-145 [4]; read-out: pTGI (converted)
  TGI: > 100 µM
TK-10 [5]
  growth at 100 µM: 6%
UACC-257
  growth at 0.1 µM: 93%
786-0
  growth at 100 µM: 4%
U-251
  growth at 100 µM: 6%
CAKI-1
  growth at 0.01 µM: 96%
SF-295
  growth at 0.01 µM: 96%
SK-OV-3 [6]
  growth at 0.1 µM: 114%
NCI-H322M [7]
  growth at 0.1 µM: 97%
IGROV-1 [8]
  growth at 0.1 µM: 111%
OVCAR-5; read-out: GI50
  GI50: 18.3 µM
OVCAR-5; [21]
  CC50: > 100 µM
OVCAR-5; read-out: TGI
  TGI: > 100 µM
OVCAR-5; read-out: pGI50 (converted)
  GI50: 18.2 µM
OVCAR-5; [22]
  CC50: > 100 µM
OVCAR-5; read-out: pTGI (converted)
  TGI: > 100 µM
OVCAR-4
  growth at 100 µM: 29%
LOX IMVI [9]
  growth at 1 µM: 92%
A498
  growth at 0.1 µM: 86%
[10]
  growth at 100 µM: 2%
SW-620 [11]
  growth at 0.1 µM: 95%
K562 [12]
  growth at 0.1 µM: 100%
[13]
  growth at 100 µM: 18%
SW-620 [14]
  growth at 1 µM: 90%
HCT-116
  growth at 0.1 µM: 90%
MDA-MB-468
  growth at 0.1 µM: 83%
TK-10 [15]
  growth at 0.1 µM: 102%
RXF 393
  growth at 0.1 µM: 91%
BT-549
  growth at 1 µM: 90%
[16]; read-out: GI50
  GI50: 5.1 µM
[16]; [21]
  CC50: > 100 µM
[16]; read-out: TGI
  TGI: > 100 µM
[16]; read-out: pGI50 (converted)
  GI50: 5.13 µM
[16]; [22]
  CC50: > 100 µM
[16]; read-out: pTGI (converted)
  TGI: > 100 µM
NCI-H322M [17]
  growth at 100 µM: 17%
HOP-62
  growth at 0.01 µM: 92%
RPMI-8226; read-out: GI50
  GI50: 2 µM
RPMI-8226; [21]
  CC50: > 100 µM
RPMI-8226; read-out: TGI
  TGI: > 100 µM
RPMI-8226; read-out: pGI50 (converted)
  GI50: 2 µM
RPMI-8226; [22]
  CC50: > 100 µM
RPMI-8226; read-out: pTGI (converted)
  TGI: > 100 µM
CCRF-CEM
  growth at 0.1 µM: 97%
HOP-92
  growth at 100 µM: -35%
DU-145 [18]
  growth at 0.1 µM: 107%
NCI-H522
  growth at 0.01 µM: 109%
SK-OV-3 [19]; read-out: GI50
  GI50: 18 µM
SK-OV-3 [19]; [21]
  CC50: > 100 µM
SK-OV-3 [19]; read-out: TGI
  TGI: > 100 µM
SK-OV-3 [19]; read-out: pGI50 (converted)
  GI50: 18.2 µM
SK-OV-3 [19]; [22]
  CC50: > 100 µM
SK-OV-3 [19]; read-out: pTGI (converted)
  TGI: > 100 µM
TK-10 [20]; read-out: GI50
  GI50: 5.37 µM
TK-10 [20]; [21]
  CC50: > 100 µM
TK-10 [20]; read-out: TGI
  TGI: > 100 µM
TK-10 [20]; read-out: pGI50 (converted)
  GI50: 5.37 µM
TK-10 [20]; [22]
  CC50: > 100 µM
TK-10 [20]; read-out: pTGI (converted)
  TGI: > 100 µM
